Laboratory results from patent US20230027295A1, “FXIA INHIBITORS AND PREPARATION METHOD THEREFOR AND PHARMACEUTICAL USE THEREOF” (Shenzhen Salubris Pharmaceuticals Co., Ltd., priority 2019, published 2023).
pIC50: −log10 of the molar value.

Columns and labels:
[1] = target: T1, CYP2C9 (Homo sapiens, UniProt P11712); experiment: CYP enzyme inhibition in liver microsomes: CYP2C9; format: in vitro ADME; details: 0.2 mg/mL liver microsomes
T1 construct: Liver microsomes (150-donor, Corning, Cat. 452117; Lot; 38292), NADPH; tissue Corning 452117; host or cells: liver microsomes, 150-donor pool
T1 sequence (P11712 whole entry): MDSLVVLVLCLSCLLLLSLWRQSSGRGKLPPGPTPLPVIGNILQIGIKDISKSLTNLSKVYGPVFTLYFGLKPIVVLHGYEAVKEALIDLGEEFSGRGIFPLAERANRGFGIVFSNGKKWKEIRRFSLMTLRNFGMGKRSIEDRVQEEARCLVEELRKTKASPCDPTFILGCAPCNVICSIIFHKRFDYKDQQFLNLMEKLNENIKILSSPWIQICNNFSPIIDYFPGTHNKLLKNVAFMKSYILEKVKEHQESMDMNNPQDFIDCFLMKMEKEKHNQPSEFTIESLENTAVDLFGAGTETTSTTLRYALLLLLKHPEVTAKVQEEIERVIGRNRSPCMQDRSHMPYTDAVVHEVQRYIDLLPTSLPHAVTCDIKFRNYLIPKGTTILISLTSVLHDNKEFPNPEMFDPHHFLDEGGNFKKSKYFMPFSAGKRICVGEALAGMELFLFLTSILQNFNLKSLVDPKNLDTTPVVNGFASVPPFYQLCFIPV
Description: Example 55: Investigation of CYP Enzyme Inhibition by the Compounds of the Present Invention Liver microsomes (150-donor, Corning, Cat. 452117; Lot. 38292), NADPH. […] After pre-incubating for 8 min, 10 mM NADPH was added to start the reaction, and the final concentration of NADPH was 1 mM. After a period of incubation, an internal standard such as methanol was added to stop the reaction. The amount of substrate metabolites generated in each reaction well was detected. […]

[2] = Cynomolgus monkey pharmacokinetics; format: in vivo; design: AUC: concentration or dose not given beside the values
Description: Example 53: Investigation of the Pharmacokinetic Characteristics of the Compounds of the Present Invention
SD rats: male, 180-250 g, purchased from Guangdong Medical Laboratory Animal Center. Cynomolgus monkey: male, 4-6 kg, purchased from Guangzhou Chunsheng Biological Research Institute Co., Ltd. Beagle dog: male, 8-12 kg, developed in Kanglong Chemical (Ningbo) New Drug Technology Co., Ltd.
Reagents: DMSO (dimethyl sulfoxide), PEG-400 (polyethylene glycol 400), normal brine, heparin, acetonitrile, formic acid, and propranolol (internal standard) are commercially available.
Instrumentation: Thermo Fisher Scientific LC-MS (U300 UPLC, TSQ […] ULTRA triple quadrupole mass spectrometer).
The compound was weighed and dissolved in DMSO-PEG-400-physiological brine (5:60:35, v/v/v) system. After the rats/monkeys were administered intravenously or by gavage, 200 μL of venous blood was collected at 5 min (not collected when administered by gavage), 15 min, 30 min, 1 h, 2 h, 4 h, 6 h, 8 h, and 24 h in heparinized EP tubes, centrifuged at 12000 rpm for 2 min, and the plasma was frozen at −80° C. for testing. A certain amount of the test substance was precisely weighed and dissolved in DMSO to 1 mg/mL, which was used as a stock solution. An appropriate amount of compound stock solution was accurately pipetted and diluted with acetonitrile to prepare a standard series of solutions. 20 μL of each of the above standard series solutions were accurately pipetted, added with 180 μL of blank plasma, vortexed and mixed to prepare plasma samples equivalent to plasma concentrations of 1, 3, 10, 30, 100, 300, 1000, 3000 and 5000 ng/mL. Two-sample analysis was performed for each concentration to establish a standard curve. 20 μL of plasma was taken out, added with 200 μL of internal standard propranolol (5 ng/mL) in acetonitrile, vortexed and mixed. It was centrifuged at 4000 rpm for 5 min, and the supernatant was collected for LC-MS analysis. LC-MS detection conditions were as follows:
Chromatographic column: Thermo Scientific […] GOLD C-18 UPLC column, 100*2.1 mm, 1.9 μm.
Mobile phase: water (0.1% formic acid)-acetonitrile for gradient elution according to the table below.
After blood drug concentrations being detected by LC-MS, WinNonlin 6.1 software was used to calculate pharmacokinetic parameters by non-compartmental model method.

Row | pIC50 [1] | F ([2]; ig) | AUC ([2]; male, plasma, iv) | Cmax ([2]; male, plasma, iv) | Tmax ([2]; male, plasma, iv) | clearance ([2]; male, plasma, iv) | half-life ([2]; male, plasma, iv) | Vd ([2]; male, plasma, iv, read-out: Vss) | AUC ([2]; male, plasma, po, ig) | Cmax ([2]; male, plasma, po, ig) | Tmax ([2]; male, plasma, po, ig) | half-life ([2]; male, plasma, po, ig) | Structure (SMILES)
1 | < 4.30 | 17.3% | 1430 ng·h/mL | 2690 ng/mL | 0.083 h | 12 mL/min/kg | 2.83 h | 0.65 L/kg | 2480 ng·h/mL | 198 ng/mL | 2.5 h | 7.07 h | COc1nn([C@@H](Cc2ccccc2)C(=O)Nc2ccc(C(=O)O)cc2)c(=O)cc1-c1cc(Cl)ccc1C(C)=O [Example 19, (S)-4-(2-(4-(2-acetyl-5-chlorophenyl)-3-methoxy-6-oxopyridazin-1(6H)-yl)-3-phenylpropanamido)benzoic acid]
2 | ~4.30 | – | – | – | – | – | – | – | – | – | – | – | CCC(=O)c1ccc(Cl)cc1-c1cc(=O)n([C@@H](Cc2ccccc2)C(=O)Nc2ccc(C(=O)O)cc2)nc1OC [Example 32]
